Legend:
[1] = system: DNAM1, NKP30, NKP44, NKP46, NKG2D, CD16, Fas, FasL; test: Immunophenotype of transduced NK cells (NK receptors, multiparameter flow cytometry); assay type: cell-based, human; conditions: rimiducid administration; data not shown
Text: FIGS. 18A-18E Phenotype of iMC transduced NK cells. […] MFI or the percentages of positive cells were normalized according the average value of non-transduced NK cells. […] Two-way ANOVAs were used to compare groups. P<0.0001. […] Transgene expression as indicated by CD19 positive percentage. Representative flow plots are shown in FIG. 18D and dot plots for N=4 in FIG. 18E. Paired t tests were used to compare groups. **p<0.01.
Transduced NKs or T cells were stained with anti-CD56-APCcy7 (NK) or anti-CD3-Percep.Cy5 (T) and anti-CD19-BV421 for iMC or iRC9 transgene expression. For CAR-transduced cells, anti-CD34 QBEnd-10-PE (Abnova) was used to determine transduction efficiency. […] All antibodies were purchased from Biolegend except otherwise stated. Flow cytometry was performed using NovoCyte flow cytometer and the data were analyzed using ACEA NovoExpress software (ACEA Biosciences Inc, San Diego, CA).
NK cell activating receptors are essential for NK cell activation and recognition of targets. Upon infection or malignant transformation, these ligands typically upregulate and activate NK cells for specific attack and elimination of target cells. […]

[2] = healthy volunteers; cited from earlier work
IFN-γ = IFN-γ ELISA of supernatant, co-culture with k562; assay type: cell-based, human; conditions: rimiducid 0-100 nM
transduced NK cells = test: Safety switch activation in NK cells in vitro (Annexin V, 7AAD, CD19 loss); assay type: cell-based, human; conditions: 10 nM temsirolimus
Method: (§1) FIGS. 25A-25D: Safety switch in NKs. […] FIG. 25A: Annexin V staining was assessed by flow cytometry analysis. FIG. 25B: Temsirolimus at various concentration was administrated for 24 hrs. 7AAD staining was assessed by flow cytometry. Cells were first gated as CD56+CD19+ for transduced cells, CD56+ for NT non-transduced NK cells. […] 4 Four mice were applied administered 1 mg/kg temsirolimus i.p., whereas 5 mice were administrated with same volume vehicle. Before injection and 24 hrs. later, firefly luciferase BLI was determined for to measure NK presence in vivo (FIG. 25E). Mice were then euthanized. Spleens were analyzed for the presence of NK cells by flow cytometry. NK cells were identified as hCD45+mCD45− populations (FIG. 25F). Transduced NKcells were identified as hCD45+mCD45-hCD56+hCD19+ populations (FIG. 25G). Student t test was used to do comparisonscompare groups. ***P<0.001.
FIG. 14—Caspase-9 activation ablates DS NK cells. NK cells from three separate donors were transduced with recombinant retroviruses 1664 (iMC+iRC9) or 1531 (iC9+iRMC) and expanded. […] After 24 hours NK cells were assayed for presence of the CD19 marker cotransduced with the switches. […] MFI=Mean fluorescence intensity of CD19 in flow cytometry, indicating a proportional growth advantage of highly expressing cells. […]

[3] = system: iRC9.IL15.iMC-transduced NKs; test: Safety switch activation in vivo in NSG mice (BLI, spleen flow cytometry); set-up: species or system mouse
Method: as §1
To prevent potential uncontrolled expansion of the gene modified NK cells, as well as associated cytokine release syndrome (CRS) and GvHD, a suicide gene iRC9 was incorporated into the constructs. […] The suicide gene was also effective in vivo. Mice engrafted with THP-1 tumor received iRC9.IL15.iMC-transduced NKs labeled with oNL […] luciferase. Mice were then either treated with the dimerizer temsirolimus or vehicle control.

Row | Structure (SMILES) | surface NK cell receptor expression [1] | safety [2] | IFN-γ production at the co-culture supernatant (IFN-γ) | apoptosis of transduced NK cells (transduced NK cells) | viability of non-transduced NK cells (transduced NK cells) | frequency of gene modified NK cells in the spleens ([3]; temsirolimus treated mice) | BLI signal of NK cells in vivo ([3]; within 24 hrs, temsirolimus 1 mg/kg i.p. vs vehicle)
1 | CC[C@H](C(=O)N1CCCC[C@H]1C(=O)O[C@H](CCc1ccc(OC)c(OC)c1)c1cccc(OCC(=O)NCCNC(=O)COc2cccc([C@@H](CCc3ccc(OC)c(OC)c3)OC(=O)[C@@H]3CCCCN3C(=O)[C@@H](CC)c3cc(OC)c(OC)c(OC)c3)c2)c1)c1cc(OC)c(OC)c(OC)c1 (relative stereo) [Rimiducid, 2-Piperidinecarboxylic acid, 1-[(2S)-1-oxo-2-(3,4,5-trimethoxyphenyl)butyl]-, 1,2-ethanediyIbis[imino(2-oxo-2,1-ethanediyl)oxy-3,1-phenylene[(1R)-3-(3,4-dimethoxyphenyl)propylidene]] ester, [2S-[1(R*),2R*[S*[S*[1(R*),2R*]]]]]-(9Cl)] | did not increase surface NK cell receptor expression | proven safe in healthy volunteers | dramatically increased IFN-γ production at the co-culture supernatant in a dose-dependent manner |  |  |  | 
2 | CO[C@H]1C[C@@H]2CC[C@@H](C)[C@@](O)(O2)C(=O)C(=O)N2CCCC[C@H]2C(=O)O[C@H]([C@H](C)C[C@@H]2CC[C@@H](OC(=O)C(C)(CO)CO)[C@H](OC)C2)CC(=O)[C@H](C)/C=C(\C)[C@@H](O)[C@@H](OC)C(=O)[C@H](C)C[C@H](C)/C=C/C=C/C=C/1C [temsirolimus] |  |  |  | induced apoptosis as early as 4 hrs | no effect | significantly reduced | dramatically reduced

Reference: patent US12410231B2, “Natural killer cell products and methods” (Board of Regents of The University of Texas System, priority 2018, dated 2025)
